Test systems include M14; UO-31; HCC 2998; SK-MEL-2; SF-539; HOP-62; U-251; OVCAR-4; RXF 393; UACC-257; NCI-H226; HT-29; HCT-116; IGROV-1; OVCAR-3; CCRF-CEM; SW-620; MOLT-4; NCI-H460.
Holding throughout (assay): NCI-60 cell line screen, 48 h

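Values below derive from 48-hour exposures of cells grown in 96-well plates, with endpoints linearly interpolated between the two concentrations bracketing the appropriate inhibition level. Abbreviation: GI50, concentration required for 50% inhibition of growth.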 The source made the active and inactive calls. Rule as the data show it: active = GI50 up to about 1.1 µM and inactive = higher.

`CC(C)N(C(=O)C1(C)CC1)C(C)C`: the GI50 in the experiment with M14, in the experiment on UO-31, in the experiment with HCC 2998, with SK-MEL-2, in the experiment with SF-539 and in the experiment with HOP-62 was > 100 µM (inactive) each time. In addition, the GI50 in the experiment with U-251, with OVCAR-4, in the experiment with RXF 393, in the experiment on UACC-257, in the experiment on NCI-H226 and with HT-29 was > 100 µM (inactive) each time. Besides, the GI50 in the experiment on HCT-116, in the experiment with IGROV-1, with OVCAR-3, in the experiment on CCRF-CEM, with SW-620 and in the experiment with MOLT-4 was > 100 µM (inactive) throughout.

As for `COc1cc(OC)cc(C(=O)Cc2c(C(=O)c3ccccc3)c3ccccc3n2C(=O)c2ccccc2)c1`, the GI50 was 32.2 µM (inactive) in the experiment with M14; 24.4 µM (inactive) in the experiment with UO-31; 43.4 µM (inactive) with HCC 2998; 20.5 µM (inactive) in the experiment with SK-MEL-2; 30.2 µM (inactive) in the experiment with SF-539; 93.5 µM (inactive) with HOP-62. The GI50 is 20.2 µM (inactive) in the experiment with U-251; 15.3 µM (inactive) in the experiment with OVCAR-4; 43.6 µM (inactive) with RXF 393; 31.1 µM (inactive) with NCI-H226; 22.9 µM (inactive) in the experiment on HT-29; 23.2 µM (inactive) in the experiment on HCT-116. Besides, the GI50 in the experiment with NCI-H460 was 15.5 µM (inactive); with IGROV-1, 31.3 µM (inactive); in the experiment on OVCAR-3, 21.3 µM (inactive); in the experiment with CCRF-CEM it was 16 µM (inactive); in the experiment on SW-620, 37.5 µM (inactive); in the experiment on MOLT-4, 9.4 µM (inactive).

In the case of `COc1ccc(CCCN2c3ccccc3Sc3ccccc32)cc1`, the GI50 in the experiment on M14, in the experiment with UO-31, with HCC 2998, in the experiment with SK-MEL-2, in the experiment with SF-539 and in the experiment on HOP-62 was > 100 µM (inactive) in each case. The GI50 in the experiment on U-251 is > 100 µM (inactive); in the experiment on OVCAR-4, 53.2 µM (inactive); in the experiment with RXF 393, > 100 µM (inactive); in the experiment with UACC-257, > 100 µM (inactive); with NCI-H226 it was > 100 µM (inactive); in the experiment with HT-29, 54.1 µM (inactive). Further, the GI50 in the experiment with HCT-116 is 36.3 µM (inactive); in the experiment on NCI-H460, 99.5 µM (inactive); with IGROV-1 it was > 100 µM (inactive); in the experiment with CCRF-CEM it was 51.2 µM (inactive); in the experiment with SW-620, 22.8 µM (inactive); in the experiment with MOLT-4 it was 19.6 µM (inactive).

In the case of `Nc1ccn(C2OC(COP(=O)(O)OCC3OC(n4cc(F)c(=O)[nH]c4=O)CC3O)C(O)C2O)c(=O)n1` (stereo not drawn), the GI50 with M14 was 0.183 µM (active); in the experiment on UO-31, 0.339 µM (active); in the experiment on HCC 2998, 87.9 µM (inactive); in the experiment with SK-MEL-2, > 100 µM (inactive); with SF-539, < 0.0439 µM (active); with U-251, 1.77 µM (inactive). The GI50 was > 100 µM (inactive) with OVCAR-4; > 56.8 µM (inactive) in the experiment with RXF 393; > 21.5 µM (inactive) in the experiment with UACC-257; > 22.9 µM (inactive) in the experiment on NCI-H226; 4.3 µM (inactive) in the experiment on HT-29; 0.687 µM (active) in the experiment with HCT-116. Moreover, the GI50 with NCI-H460 is < 0.01 µM (active); in the experiment on IGROV-1 it was > 34 µM (inactive); in the experiment on OVCAR-3, > 100 µM (inactive); with CCRF-CEM it was 0.0161 µM (active); in the experiment on SW-620 it was > 100 µM (inactive); in the experiment on MOLT-4, 0.0575 µM (active).

As to `COC(=O)CC(=O)NCC1=CCC(=O)CC1`, the GI50 with M14, in the experiment on UO-31, in the experiment with HCC 2998, with SK-MEL-2, in the experiment on SF-539 and in the experiment on HOP-62 was > 100 µM (inactive) each time. The GI50 with U-251, in the experiment on OVCAR-4, in the experiment on RXF 393, with UACC-257, in the experiment on HT-29 and in the experiment with HCT-116 was > 100 µM (inactive) each time. For the same molecule, the GI50 in the experiment on NCI-H460, in the experiment on IGROV-1, in the experiment on OVCAR-3, with CCRF-CEM, in the experiment with SW-620 and with MOLT-4 was > 100 µM (inactive) each time.

`CCOc1ccc(/N=N/c2c(-c3ccccc3)nn(C(=O)CC(=O)Nc3cccc(C)c3)c2-c2ccccc2)cc1`: the GI50 in the experiment with M14 is > 100 µM (inactive); in the experiment with UO-31 it was 17.7 µM (inactive); with HCC 2998 it was 26.6 µM (inactive); in the experiment on SK-MEL-2 it was > 100 µM (inactive); in the experiment on SF-539, 76.2 µM (inactive); with HOP-62 it was > 100 µM (inactive). Besides, the GI50 is 56.2 µM (inactive) with U-251; > 100 µM (inactive) in the experiment with OVCAR-4; 57.9 µM (inactive) in the experiment on RXF 393; > 100 µM (inactive) in the experiment on UACC-257; 96.4 µM (inactive) with NCI-H226; 22 µM (inactive) in the experiment on HT-29. The GI50 was 58.5 µM (inactive) in the experiment with HCT-116; > 100 µM (inactive) with NCI-H460; > 100 µM (inactive) with IGROV-1; > 100 µM (inactive) in the experiment on OVCAR-3; 76.9 µM (inactive) with CCRF-CEM; > 100 µM (inactive) with SW-620. For the same molecule, the GI50 in the experiment on MOLT-4 was > 100 µM (inactive).

For the molecule `Clc1ccc2c(c1)[nH]c1c2nc2sccn21`, the GI50 with M14, in the experiment with UO-31, in the experiment on HCC 2998, in the experiment with SK-MEL-2, in the experiment with SF-539 and in the experiment with HOP-62 was > 100 µM (inactive) in each case. Also, the GI50 in the experiment with U-251, in the experiment on OVCAR-4, with RXF 393, in the experiment on UACC-257, in the experiment on NCI-H226 and in the experiment on HT-29 was > 100 µM (inactive) each time. Besides, the GI50 with HCT-116, with NCI-H460, with IGROV-1, with OVCAR-3, in the experiment with CCRF-CEM and in the experiment on SW-620 was > 100 µM (inactive) each time. Also, the GI50 in the experiment on MOLT-4 is > 100 µM (inactive).

As to `N#Cc1ccc(C2OCC3CC=CCC3CO2)cc1` (stereo not drawn), the GI50 is 52.2 µM (inactive) in the experiment on M14; > 100 µM (inactive) in the experiment with UO-31; 59.4 µM (inactive) with HCC 2998; > 100 µM (inactive) in the experiment on SK-MEL-2; > 100 µM (inactive) in the experiment on SF-539; > 100 µM (inactive) in the experiment with HOP-62. The GI50 in the experiment with U-251 was 76.7 µM (inactive); in the experiment on OVCAR-4 it was > 100 µM (inactive); in the experiment on RXF 393, 54.3 µM (inactive); in the experiment on UACC-257, 42.7 µM (inactive); in the experiment with NCI-H226, > 100 µM (inactive); with HT-29, 44.7 µM (inactive). Besides, the GI50 is 65.5 µM (inactive) with HCT-116; 68.7 µM (inactive) in the experiment with NCI-H460; > 100 µM (inactive) in the experiment with IGROV-1; 91 µM (inactive) with OVCAR-3; 44.7 µM (inactive) in the experiment on CCRF-CEM; > 100 µM (inactive) with SW-620. Moreover, in the experiment with MOLT-4, the GI50 was 2.97 µM (inactive).

With `CC1=C[C@H]2C[C@@]3(C)O[C@@H]([C@]4(C)CC[C@H]([C@@H](C)C(=O)O)OO4)CC3C(C)(C)[C@H]2CC1` (stereo partly drawn), the GI50 in the experiment on M14 is 1.44 µM (inactive); in the experiment with UO-31, 1.2 µM (inactive); in the experiment with HCC 2998, 1.04 µM (active); in the experiment with SK-MEL-2, 1.71 µM (inactive); in the experiment on SF-539, 1.94 µM (inactive); in the experiment on HOP-62 it was 2.22 µM (inactive). Also, the GI50 with U-251 is 1.65 µM (inactive); in the experiment on OVCAR-4, 1.5 µM (inactive); in the experiment on RXF 393, 1.25 µM (inactive); in the experiment on UACC-257, 1.68 µM (inactive); in the experiment on NCI-H226, 2.01 µM (inactive); in the experiment with HT-29, 0.479 µM (active). Also, the GI50 was 2.16 µM (inactive) in the experiment on HCT-116, 1.13 µM (inactive) in the experiment on NCI-H460, 1.81 µM (inactive) in the experiment on OVCAR-3 and 0.259 µM (active) in the experiment on SW-620.

For `CC(C(=O)c1ccc(Cl)cc1)/C(=N/NC(=O)NN)C(=O)Nc1cccc(C(F)(F)F)c1` (stereo not drawn), the GI50 with M14, with UO-31, in the experiment on HCC 2998, in the experiment on SK-MEL-2, in the experiment with SF-539 and in the experiment with U-251 was > 100 µM (inactive) throughout. For the same molecule, the GI50 with OVCAR-4 was > 100 µM (inactive); in the experiment on RXF 393, 22.8 µM (inactive); in the experiment with UACC-257, > 100 µM (inactive); in the experiment with NCI-H226, > 100 µM (inactive); in the experiment on HT-29, > 100 µM (inactive); in the experiment on HCT-116, > 100 µM (inactive). Also, the GI50 with NCI-H460, with IGROV-1, in the experiment on OVCAR-3, with CCRF-CEM, in the experiment on SW-620 and in the experiment with MOLT-4 was > 100 µM (inactive) throughout.

Consider `CC(=O)C1C(=O)NC(=O)C1=O` (stereo not drawn), for which the GI50 with M14, in the experiment on UO-31, in the experiment on HCC 2998, with SK-MEL-2, with SF-539 and in the experiment with HOP-62 was > 100 µM (inactive) throughout. Moreover, the GI50 in the experiment with U-251, with OVCAR-4, in the experiment on RXF 393, in the experiment with UACC-257, in the experiment with NCI-H226 and in the experiment with HT-29 was > 100 µM (inactive) throughout. The GI50 was > 100 µM (inactive) in the experiment with HCT-116; > 100 µM (inactive) with NCI-H460; > 100 µM (inactive) in the experiment with IGROV-1; > 100 µM (inactive) with OVCAR-3; 29.2 µM (inactive) in the experiment on SW-620.

Values taken from ChEMBL document CHEMBL1201862, “PubChem BioAssay data set” (2004).
